Each block holds one compound with its values, some of them ahead of it.
What was measured:
[1] = biological target: T1, D(2) dopamine receptor (Rattus norvegicus, UniProt P61169); experiment: Effective concentration required for agonistic activity against rat D2 short receptor; assay type: functional
[2] = biological target: T1, D(2) dopamine receptor; experiment: Effective concentration required for agonistic activity against rat Dopamine receptor D2L; assay type: functional
[3] = biological target: T2, D(4) dopamine receptor (Homo sapiens, UniProt P21917); experiment: Binding affinity of compound measured using [3H]spiperone for the cloned human dopamine receptor D4.4 (high/low affinity is given as 50/2200)
T2 sequence (P21917 whole entry): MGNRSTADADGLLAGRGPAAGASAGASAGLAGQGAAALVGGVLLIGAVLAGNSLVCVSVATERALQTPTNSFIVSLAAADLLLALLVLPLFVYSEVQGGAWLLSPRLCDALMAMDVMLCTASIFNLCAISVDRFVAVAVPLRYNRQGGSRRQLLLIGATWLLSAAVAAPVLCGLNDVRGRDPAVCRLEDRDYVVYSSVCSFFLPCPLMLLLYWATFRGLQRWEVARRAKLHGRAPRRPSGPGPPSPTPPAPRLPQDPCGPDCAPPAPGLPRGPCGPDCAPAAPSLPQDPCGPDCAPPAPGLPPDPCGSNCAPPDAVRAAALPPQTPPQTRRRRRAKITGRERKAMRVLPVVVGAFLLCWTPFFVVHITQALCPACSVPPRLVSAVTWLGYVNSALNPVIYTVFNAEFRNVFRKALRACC

[4] = biological target: T2, D(4) dopamine receptor; experiment: Effective concentration required for agonistic activity against human D4.2 receptor; assay type: functional
[5] = biological target: T3, D(2) dopamine receptor (Bos taurus, UniProt P20288); experiment: Binding affinity of compound against Dopamine receptor D2 was measured using [3H]pramipexole in Bovine striatal membranes; assay type: cell membranes, Striatum, Membrane
[6] = biological target: T4, D(2) dopamine receptor (Homo sapiens, UniProt P14416); experiment: Binding affinity of compound measured using [3H]spiperone for the cloned human Dopamine receptor D2L (high/low affinity is given as 85/6400)
[7] = biological target: T4, D(2) dopamine receptor; experiment: Binding affinity of compound measured using [3H]spiperone for the cloned human dopamine receptor D2 short (high/low affinity is given as 35/3700)
[8] = biological target: D(1A) dopamine receptor (Bos taurus, UniProt Q95136); experiment: Binding affinity of compound measured against Dopamine receptor D1 from bovine striatal membranes using radioligand [3H]-SCH- 23390
[9] = biological target: T5, D(3) dopamine receptor (Homo sapiens, UniProt P35462); experiment: Effective concentration required for agonistic activity against human Dopamine receptor D3
[10] = biological target: T5, D(3) dopamine receptor
[11] = biological target: T4, D(2) dopamine receptor; experiment: Binding affinity of compound measured using [3H]spiperone for the cloned human dopamine receptor D2 short (high/low affinity is given as 130/50000)
[12] = biological target: T2, D(4) dopamine receptor; experiment: Binding affinity of compound measured using [3H]spiperone for the cloned human dopamine receptor D4.4 (high/low affinity is given as 87/23000)
[13] = biological target: T5, D(3) dopamine receptor; experiment: Effective concentration required for agonistic activity against human D3 receptor; assay type: functional
[14] = biological target: T4, D(2) dopamine receptor; experiment: Binding affinity of compound measured using [3H]spiperone for the cloned human dopamine receptor D2 long (high/low affinity is given as 230/53000)
[15] = biological target: T1, D(2) dopamine receptor; experiment: Effective concentration required for agonistic activity against rat D2 long receptor; assay type: functional
[16] = biological target: T5, D(3) dopamine receptor; remark: listed apart in the source
Description: Binding affinity of compound measured using [3H]spiperone for the cloned human Dopamine receptor D3 (high/low affinity is given as 16/16000)

[17] = biological target: T3, D(2) dopamine receptor
[18] = biological target: T2, D(4) dopamine receptor; experiment: Binding affinity of compound measured using [3H]spiperone for the cloned human dopamine receptor D4.4 (high/low affinity is given as 16/1300)

T4 sequence (P14416 whole entry): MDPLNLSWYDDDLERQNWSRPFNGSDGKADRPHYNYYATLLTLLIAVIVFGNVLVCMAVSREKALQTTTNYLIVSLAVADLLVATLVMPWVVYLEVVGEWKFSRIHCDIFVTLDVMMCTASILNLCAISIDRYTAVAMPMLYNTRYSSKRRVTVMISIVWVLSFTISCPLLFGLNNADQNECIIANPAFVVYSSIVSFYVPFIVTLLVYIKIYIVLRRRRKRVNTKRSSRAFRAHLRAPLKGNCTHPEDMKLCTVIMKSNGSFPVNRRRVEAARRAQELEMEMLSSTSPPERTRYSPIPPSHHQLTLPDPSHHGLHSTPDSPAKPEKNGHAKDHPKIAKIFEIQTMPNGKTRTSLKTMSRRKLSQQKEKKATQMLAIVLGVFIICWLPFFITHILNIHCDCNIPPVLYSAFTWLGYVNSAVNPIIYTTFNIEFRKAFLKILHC
T3 sequence (P20288 whole entry): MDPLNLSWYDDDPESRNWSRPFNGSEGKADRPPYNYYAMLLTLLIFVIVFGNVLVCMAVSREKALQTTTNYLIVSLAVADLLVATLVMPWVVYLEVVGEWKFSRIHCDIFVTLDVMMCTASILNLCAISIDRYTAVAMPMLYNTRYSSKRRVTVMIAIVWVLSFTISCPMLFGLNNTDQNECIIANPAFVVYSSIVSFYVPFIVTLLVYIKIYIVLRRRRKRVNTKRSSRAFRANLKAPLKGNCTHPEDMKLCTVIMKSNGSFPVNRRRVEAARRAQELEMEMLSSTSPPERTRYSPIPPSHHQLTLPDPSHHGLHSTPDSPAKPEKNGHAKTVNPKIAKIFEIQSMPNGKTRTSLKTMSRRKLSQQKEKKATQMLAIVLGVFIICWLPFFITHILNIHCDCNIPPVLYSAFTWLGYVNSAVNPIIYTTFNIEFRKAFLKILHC
T1 sequence (P61169 whole entry): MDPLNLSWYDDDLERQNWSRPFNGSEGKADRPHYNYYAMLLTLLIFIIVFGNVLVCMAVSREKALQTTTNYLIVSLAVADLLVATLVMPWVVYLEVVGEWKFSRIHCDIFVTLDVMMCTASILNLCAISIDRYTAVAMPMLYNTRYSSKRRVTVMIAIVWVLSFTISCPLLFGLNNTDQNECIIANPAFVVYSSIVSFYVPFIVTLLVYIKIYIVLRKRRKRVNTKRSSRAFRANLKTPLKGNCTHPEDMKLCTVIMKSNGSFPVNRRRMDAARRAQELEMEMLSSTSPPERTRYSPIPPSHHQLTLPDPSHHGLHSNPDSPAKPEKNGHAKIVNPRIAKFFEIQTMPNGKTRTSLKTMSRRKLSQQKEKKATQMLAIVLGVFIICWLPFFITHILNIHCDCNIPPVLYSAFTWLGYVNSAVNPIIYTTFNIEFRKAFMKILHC
T5 sequence (P35462 whole entry): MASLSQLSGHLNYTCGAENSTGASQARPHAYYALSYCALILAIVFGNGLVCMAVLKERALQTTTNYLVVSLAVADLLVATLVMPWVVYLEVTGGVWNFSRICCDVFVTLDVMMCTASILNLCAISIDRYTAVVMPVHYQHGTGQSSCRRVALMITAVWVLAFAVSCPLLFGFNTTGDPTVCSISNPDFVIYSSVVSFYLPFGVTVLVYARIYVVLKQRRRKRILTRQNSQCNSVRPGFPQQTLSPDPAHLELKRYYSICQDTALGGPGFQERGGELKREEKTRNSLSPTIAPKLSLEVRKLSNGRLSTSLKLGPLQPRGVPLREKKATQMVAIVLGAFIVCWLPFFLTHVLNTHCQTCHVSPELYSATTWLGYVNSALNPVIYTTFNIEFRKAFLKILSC
D(1A) dopamine receptor, sequence (Q95136 whole entry): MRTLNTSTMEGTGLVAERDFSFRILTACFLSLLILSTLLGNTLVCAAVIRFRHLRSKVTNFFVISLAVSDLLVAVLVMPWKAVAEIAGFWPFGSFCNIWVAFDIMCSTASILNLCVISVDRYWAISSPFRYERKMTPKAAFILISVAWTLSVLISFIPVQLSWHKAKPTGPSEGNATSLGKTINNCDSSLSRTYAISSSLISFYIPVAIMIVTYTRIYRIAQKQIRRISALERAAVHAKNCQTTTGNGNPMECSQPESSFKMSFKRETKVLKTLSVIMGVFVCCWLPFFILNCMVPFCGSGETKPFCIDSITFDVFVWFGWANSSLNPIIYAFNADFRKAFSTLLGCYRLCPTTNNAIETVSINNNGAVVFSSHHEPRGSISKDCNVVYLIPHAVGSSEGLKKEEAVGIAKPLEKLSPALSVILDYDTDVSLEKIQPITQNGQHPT

Structure (SMILES): CCCN(CCC)[C@H]1CCc2nn3ccccc3c2C1
EC50 [1]: 47 nM
EC50 [2]: 16 nM
Ki [3]: 50 nM
EC50 [4]: 430 nM
Ki [5]: 8.6 nM
Ki [6]: 85 nM
Ki [7]: 35 nM
Ki [8]: 18000 nM
EC50 [9]: 2.8 nM
Ki [10]: 0.54 nM

Ki [11]: 130 nM
EC50 [1]: > 1000 nM
Ki [12]: 87 nM
EC50 [13]: > 1000 nM
Ki [14]: 230 nM
EC50 [4]: > 1000 nM
EC50 [15]: > 1000 nM
Ki [5]: 3100 nM
Ki [8]: 21000 nM
Ki [16]: 16 nM
Structure (SMILES): CCCN1CCc2nn3ccccc3c2C1

Structure (SMILES): CCCN[C@H]1CCc2nc(N)sc2C1 [PRAMIPEXOLE]
Kd [17]: 1.6 nM

Structure (SMILES): CCCN1CCC[C@@H](c2cccc(O)c2)C1 [PRECLAMOL]
EC50 [4]: 60 nM
Ki [18]: 16 nM
Ki [5]: 52 nM

From ChEMBL document CHEMBL1134894, “Fused azaindole derivatives: molecular design, synthesis and in vitro pharmacology leading to the preferential dopamine D3 receptor agonist FAUC 725” (Bioorg Med Chem Lett, 2002)
